# ± gives the standard deviation of the averaged measurements.
# Experiments:
# Assay in all cases: level (log10 ratio to DMSO vehicle control); higher = higher biomarker level / cell amount than vehicle control
# Conditions in all cases: in DMSO
# [1] = compound: CC(C)(C)C(=O)CC(=O)C(F)(F)C(F)(F)C(F)(F)F [(Heptafluorobutanoyl)pivaloylmethane]
# Experimental: (§1)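 BioMAP Diversity Plus panel of 12 human primary cell co-culture systems (3C, 4H, LPS, SAg, BT, BF4T, BE3C, CASM3C, HDF3CGF, KF3CT, MyoF, Mphg). Compounds were added 1 h before stimulation and left for 24 h (MyoF 48 h; BT 72 h for soluble read-outs or 6 d for IgG). Biomarkers were read by ELISA, cytotoxicity by SRB, PBMC viability and proliferation by Alamar Blue. Each well value was divided by the mean of 8 DMSO control wells on the same plate and log10 transformed; duplicate blinded samples were tested at 4 concentrations.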
# Perfluorooctanamidine = compound: N=C(N)C(F)(F)C(F)(F)C(F)(F)C(F)(F)C(F)(F)C(F)(F)C(F)(F)F [Perfluorooctanamidine]
# Experimental: as §1
# [2] = compound: CNS(=O)(=O)C(F)(F)C(F)(F)C(F)(F)C(F)(F)C(F)(F)C(F)(F)C(F)(F)C(F)(F)F [N-Methylperfluorooctanesulfonamide]
# Experimental: as §1
Test System,level (log10) ([1]; 6700 nM),level (log10) ([1]; 20000 nM),level (log10) ([1]; 60000 nM),level (log10) (Perfluorooctanamidine; 6700 nM),level (log10) (Perfluorooctanamidine; 20000 nM),level (log10) (Perfluorooctanamidine; 60000 nM),level (log10) ([2]; 6700 nM),level (log10) ([2]; 20000 nM),level (log10) ([2]; 60000 nM)
BF4T:CD106/VCAM-1,0.0075 ± 0.015,-0.002 ± 0.0042,-0.005,0.0325 ± 0.0092,0.018 ± 0.052,0.021,-0.0235 ± 0.023,-0.0335 ± 0.0092,0.0175 ± 0.071
BF4T:CXCL8/IL-8,-0.0045 ± 0.035,-0.002 ± 0.0085,0.0175 ± 0.029,0.0025 ± 0.016,0.002 ± 0.034,0,-0.045 ± 0.03,-0.034 ± 0.028,-0.14 ± 0.03
BF4T:IL-1alpha,0.007 ± 0.011,-0.0225 ± 0.011,-0.028 ± 0.017,-0.003 ± 0.0085,-0.017 ± 0.0014,0.042,0.0065 ± 0.0078,0.0005 ± 0.015,0.0285 ± 0.049
BF4T:Keratin 8/18,-0.007 ± 0.061,-0.024 ± 0.041,0.0145 ± 0.0035,-0.012 ± 0.0057,-0.0165 ± 0.016,0.039,-0.02 ± 0.0042,-0.0185 ± 0.013,0.0135 ± 0.023
BF4T:MMP-1,0.0005 ± 0.0035,-0.0145 ± 0.0092,-0.011 ± 0.02,0.015 ± 0.02,0.006 ± 0.024,0.092,0.012 ± 0.02,0.0105 ± 0.015,-0.0105 ± 0.044
BF4T:MMP-3,-0.031 ± 0.02,-0.0345 ± 0.029,-0.0285 ± 0.057,0.0035 ± 0.032,0.003 ± 0.055,0.148,0.0015 ± 0.046,0.012 ± 0.052,0.044 ± 0.064
BF4T:MMP-9,-0.009 ± 0.042,0.0205 ± 0.029,0.033 ± 0.0014,-0.006 ± 0.0057,-0.0115 ± 0.013,0.053,-0.0095 ± 0.011,0.008 ± 0.0014,-0.021 ± 0.045
BF4T:PAI-I,-0.0045 ± 0.0021,0.001 ± 0.0028,0.0085 ± 0.012,0.007 ± 0.013,-0.001 ± 0.03,0.03,0.0005 ± 0.018,0.0015 ± 0.028,0.0285 ± 0.033
BF4T:SRB,-0.006 ± 0.0085,0.0075 ± 0.0021,0.0055 ± 0.023,-0.009 ± 0.0071,-0.0085 ± 0.0035,-0.004,-0.016 ± 0.0071,-0.021 ± 0.0042,-0.0115 ± 0.013
BF4T:tPA,-0.024 ± 0.027,-0.033 ± 0.0057,-0.0225 ± 0.026,0.004 ± 0.014,-0.027 ± 0.069,0.028,0.0145 ± 0.011,0.0325 ± 0.03,0.0515 ± 0.019
BF4T:uPA,-0.006 ± 0.011,-0.0085 ± 0.005,-0.025 ± 0.0014,-0.0185 ± 0.005,-0.0225 ± 0.011,0.05,0.0055 ± 0.0064,0.01 ± 0.014,0.0385 ± 0.028
BT:B cell Proliferation,0.007 ± 0.0099,0.007 ± 0.028,0.033 ± 0.0057,-0.0005 ± 0.011,-0.002 ± 0.017,-0.086,0.006 ± 0.0028,-0.007 ± 0.023,-0.0195 ± 0.03
BT:PBMC Cytotoxicity,0.0255 ± 0.0035,-0.019 ± 0.011,0.0105 ± 0.042,0.005,0 ± 0.031,0.006,0.0045 ± 0.019,0.016 ± 0.0099,0.0445 ± 0.011
BT:Secreted IgG,-0.0115 ± 0.016,-0.009 ± 0.017,-0.023 ± 0.02,0.0115 ± 0.039,-0.042 ± 0.0042,-0.034,0.001 ± 0.0028,-0.0745 ± 0.0092,-0.306 ± 0.21
BT:sIL-2,-0.0485 ± 0.069,-0.022 ± 0.0057,0.0155 ± 0.067,0.0225 ± 0.057,-0.01 ± 0.031,-0.002,-0.0385 ± 0.073,-0.0105 ± 0.032,0.0385 ± 0.083
BT:sIL-6,-0.038 ± 0.038,-0.029 ± 0.0057,-0.013 ± 0.023,0.0205 ± 0.025,-0.0285 ± 0.016,-0.097,-0.0045 ± 0.04,0.003 ± 0.0042,-0.083 ± 0.03
BT:sIL-17A,-0.0075 ± 0.013,-0.0315 ± 0.053,-0.194 ± 0.18,0.1795 ± 0.00071,-0.145 ± 0.044,-0.141,0.151 ± 0.14,-0.065 ± 0.0085,-0.0925 ± 0.3
BT:sIL-17F,-0.069 ± 0.082,-0.0005 ± 0.036,-0.119 ± 0.1,-0.0225 ± 0.071,-0.209 ± 0.023,-0.112,0.016 ± 0.18,0.066 ± 0.56,-0.385 ± 0.26
BT:sTNF-alpha,-0.075 ± 0.064,-0.0605 ± 0.016,0.0315 ± 0.18,0.102 ± 0.099,0.0345 ± 0.084,0.01,-0.017 ± 0.055,0.0015 ± 0.022,-0.0905 ± 0.29
LPS:CCL2/MCP-1,-0.01 ± 0.0014,-0.0055 ± 0.018,0.001 ± 0.038,-0.0005 ± 0.021,-0.003 ± 0.0028,-0.023,-0.0135 ± 0.0035,0.0125 ± 0.0021,0.006 ± 0.021
LPS:CD40,0.0275 ± 0.066,0.028 ± 0.068,0.0515 ± 0.0021,-0.0145 ± 0.04,-0.0525 ± 0.021,-0.148,-0.0545 ± 0.083,-0.0265 ± 0.023,-0.0375 ± 0.0078
LPS:CD62E/E-Selectin,-0.0025 ± 0.005,-0.0145 ± 0.021,0.004 ± 0.0042,0.0135 ± 0.00071,-0.009 ± 0.013,0.019,-0.024 ± 0.011,0.01 ± 0.02,0.03 ± 0.018
LPS:CD69,0.0025 ± 0.026,0.007,0.063 ± 0.018,-0.025 ± 0.045,-0.0395 ± 0.04,-0.132,-0.068 ± 0.016,-0.0725 ± 0.0092,-0.0725 ± 0.0035
LPS:CD106/VCAM-1,-0.0315 ± 0.047,-0.042 ± 0.017,-0.021 ± 0.034,-0.017 ± 0.014,-0.0365 ± 0.026,-0.091,-0.013 ± 0.038,0.0295 ± 0.018,0.03 ± 0.027
LPS:CD141/Thrombomodulin,-0.013 ± 0.037,-0.0095 ± 0.042,0.0325 ± 0.0021,-0.0235 ± 0.0078,-0.0325 ± 0.022,-0.01,0.005 ± 0.0028,0.0475 ± 0.0092,0.056 ± 0.0014
LPS:CD142/Tissue Factor,0.0055 ± 0.012,0.0385 ± 0.018,0.034 ± 0.0057,-0.008 ± 0.037,0.0055 ± 0.033,-0.071,-0.0275 ± 0.016,-0.0395 ± 0.016,-0.074 ± 0.018
LPS:CXCL8/IL-8,-0.019 ± 0.0099,0.015 ± 0.0057,0.0265 ± 0.013,-0.019 ± 0.027,-0.005 ± 0.016,-0.028,-0.007 ± 0.0085,-0.003 ± 0.016,-0.0025 ± 0.019

# Source: the supplement of paper PMC10331698
